{
  "source": "patent US20070134261A1",
  "about": "“Effectors of innate immunity” (priority 2001, published 2007)",
  "system": "mouse macrophage RAW cell line",
  "test": "Phosphorylation of MAP kinases (Western blot) in RAW cell line",
  "assay_type": "cell-based",
  "method": "The cells were seeded at 2.5×10^5−5×10^5 cells/ml and left overnight. They were washed once in media, serum starved in the morning (serum free media—4 hrs). The media was removed and replaced with PBS, then sat at 37° C. for 15 minutes and then brought to room temp for 15 minutes. Peptide was added (concentrations 0.1 μg/ml−50 μg/ml) or H2O and incubated 10 min. The PBS was very quickly removed and replaced with ice-cold radioimmunoprecipitation (RIPA) buffer with inhibitors (NaF, B-glycerophosphate, MOL, Vanadate, PMSF, Leupeptin Aprotinin). The plates were shaken on ice for 10-15 min or until the cells were lysed and the lysates collected. The procedure for THP-1 cells was slightly different; more cells (2×10^6) were used. They were serum starved overnight, and to stop the reaction 1 ml of ice-cold PBS was added then they sat on ice 5-10 min, were spun down then resuspended in RIPA. Protein concentrations were determined using a protein assay (Pierce, Rockford, Ill.). Cell lysates (20 μg of protein) were separated by SDS-PAGE and transferred to nitrocellulose filters. […] The freshly harvested cells were consistently >99% viable as assessed by their ability to exclude trypan blue. […] Protein content was analyzed and approximately 30 μg of each sample was loaded in a 12% SDS-PAGE gel. […] Phosphorylation was detected with phosphorylation-specific antibodies.",
  "data": [
    {"compound": "CC[C@H](C)[C@H](N)C(=O)N[C@@H](CC(C)C)C(=O)N1CCC[C@H]1C(=O)N[C@@H](Cc1c[nH]c2ccccc12)C(=O)N[C@@H](CCCCN)C(=O)N[C@@H](Cc1c[nH]c2ccccc12)C(=O)N1CCC[C@H]1C(=O)N[C@@H](Cc1c[nH]c2ccccc12)C(=O)N[C@@H](Cc1c[nH]c2ccccc12)C(=O)N1CCC[C@H]1C(=O)N[C@@H](Cc1c[nH]c2ccccc12)C(=O)N[C@@H](CCCNC(=N)N)C(=O)N[C@@H](CCCNC(=N)N)C(N)=O", "note": "[SEQ ID NO: 2]", "values": [
      {"measurement": "phosphorylation of p38 and ERK1/2", "result": "dose dependent phosphorylation"}
    ]}
  ]
}
